Earlier results as cited in article PMC4411882, “Developmental Potential for Endomorphin Opioidmimetic Drugs” (International Journal of Medicinal Chemistry, 2012).
Read-outs that look alike come from different tables or passages of the source.

Legend:
[1] = molecular target: T1, μ-opioid receptor (Rattus norvegicus, UniProt P33535); set-up: gene Oprm1; conditions: read-out: Kiμ
[2] = molecular target: T2, δ-opioid receptor (Rattus norvegicus, UniProt P33533); set-up: gene Oprd1; conditions: read-out: Kiδ
[3] = molecular target: T3, μ-opioid receptor (GPI) (Cavia porcellus, UniProt P97266); set-up: species or system guinea pig ileum
T3 construct: gene OPRM1; guinea pig ileum (GPI) bioassay
Description: (§1) Therefore, we substituted hydrophobic groups in lieu of the phenethyl group to develop the class of H-Dmt-Pro-Phe-NH-X ligands (Figure 1).

[4] = molecular target: T4, δ-opioid receptor (MVD) (Mus musculus, UniProt P32300); set-up: species or system mouse vas deferens
T4 construct: gene Oprd1; mouse vas deferens (MVD) bioassay
Description: as §1

[5] = molecular target: T1, μ-opioid receptor; set-up: gene Oprm1; rat brain P2 synaptosomal preparations; species or system rat brain P2 synaptosomal preparations; conditions: read-out: Kiμ
[6] = molecular target: T2, δ-opioid receptor; set-up: gene Oprd1; rat brain P2 synaptosomal preparations; species or system rat brain P2 synaptosomal preparations; conditions: read-out: Kiδ

T1 sequence (P33535 whole entry): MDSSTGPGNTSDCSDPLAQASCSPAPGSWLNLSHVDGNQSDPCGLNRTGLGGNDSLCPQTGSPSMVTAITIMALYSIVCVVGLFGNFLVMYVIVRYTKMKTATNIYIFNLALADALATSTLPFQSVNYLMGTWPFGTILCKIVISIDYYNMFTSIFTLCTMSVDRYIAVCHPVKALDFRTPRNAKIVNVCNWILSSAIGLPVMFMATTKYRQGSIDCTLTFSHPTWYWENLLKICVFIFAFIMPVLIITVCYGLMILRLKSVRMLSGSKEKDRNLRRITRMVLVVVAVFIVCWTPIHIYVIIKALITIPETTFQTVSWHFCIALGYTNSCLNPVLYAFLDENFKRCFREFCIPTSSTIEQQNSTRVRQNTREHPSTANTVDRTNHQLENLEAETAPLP
T4 sequence (P32300 whole entry): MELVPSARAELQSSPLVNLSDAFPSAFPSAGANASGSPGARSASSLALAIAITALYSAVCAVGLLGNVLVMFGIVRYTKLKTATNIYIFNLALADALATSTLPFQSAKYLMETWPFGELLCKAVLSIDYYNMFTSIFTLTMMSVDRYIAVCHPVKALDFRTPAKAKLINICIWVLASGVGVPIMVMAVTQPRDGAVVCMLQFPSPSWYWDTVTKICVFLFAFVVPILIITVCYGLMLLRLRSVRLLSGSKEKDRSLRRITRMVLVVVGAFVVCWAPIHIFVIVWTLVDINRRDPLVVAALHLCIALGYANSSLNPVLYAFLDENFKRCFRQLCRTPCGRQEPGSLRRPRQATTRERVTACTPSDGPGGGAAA
T2 sequence (P33533 whole entry): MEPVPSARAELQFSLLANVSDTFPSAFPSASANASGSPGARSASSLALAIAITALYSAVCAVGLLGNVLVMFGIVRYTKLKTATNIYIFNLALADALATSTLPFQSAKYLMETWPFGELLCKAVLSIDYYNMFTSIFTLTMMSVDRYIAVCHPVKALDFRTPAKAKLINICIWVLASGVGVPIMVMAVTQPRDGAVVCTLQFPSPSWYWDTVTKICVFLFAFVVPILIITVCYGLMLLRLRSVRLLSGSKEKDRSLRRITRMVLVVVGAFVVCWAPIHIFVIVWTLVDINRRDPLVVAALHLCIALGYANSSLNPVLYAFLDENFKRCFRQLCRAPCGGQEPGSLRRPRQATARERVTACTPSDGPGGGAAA
T3 sequence (P97266 whole entry): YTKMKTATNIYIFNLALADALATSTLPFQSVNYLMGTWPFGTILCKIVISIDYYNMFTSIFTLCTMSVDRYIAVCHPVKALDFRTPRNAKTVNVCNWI

Compound | Ki [1] [nM] | Ki [2] [nM] | IC50 [3] [nM] | IC50 [4] [nM] | Ki [5] [nM] | Ki [6] [nM]
CNC(=O)C(N)Cc1c(C)cc(O)cc1C (stereo not shown) [H-Dmt-NH-CH3] | 7.45 | 460 | – | – | – | –
Cc1cc(O)cc(C)c1C[C@H](N)C(=O)NCCCCCCCCNC(=O)[C@@H](N)Cc1c(C)cc(O)cc1C [compound 54, Dmt-NH-(CH2)8-NH-Dmt] | – | – | 53.7 | > 10000 | 0.19 | 14.8
Cc1cc(O)cc(C)c1CC(N)C(=O)NCc1[nH]c(=O)c(CNC(=O)C(N)Cc2c(C)cc(O)cc2C)nc1C (stereo not shown) [compound 55, 3,6-bis[Dmt-NH-CH2]-5-methyl-2(1H)-pyrazinone] | – | – | 1700 | > 10000 | 1.16 | 15.7
Cc1cc(O)cc(C)c1CC(N)C(=O)NCCCc1[nH]c(=O)c(CCCNC(=O)C(N)Cc2c(C)cc(O)cc2C)nc1C (stereo not shown) [compound 57, 3,6-bis[Dmt-NH(CH2)3]-5-methyl-2(1H)-pyrazinone] | – | – | 1.33 | > 10000 | 0.042 | 13.2
Cc1cc(O)cc(C)c1CC(N)C(=O)NCCCCc1[nH]c(=O)c(CCCCNC(=O)C(N)Cc2c(C)cc(O)cc2C)nc1C (stereo not shown) [compound 58, 3,6-bis[Dmt-NH(CH2)4]-5-methyl-2(1H)-pyrazinone] | – | – | 1.9 | 41.5 | 0.114 | 23.2
Cc1cc(O)cc(C)c1CC(N)C(=O)N1Cc2ccccc2CC1C(=O)NCc1[nH]c(=O)c(CNC(=O)C2Cc3ccccc3CN2C(=O)C(N)Cc2c(C)cc(O)cc2C)nc1C (stereo not drawn) [compound 59, 3,6-bis[Dmt-Tic-NH-CH2]-5-methyl-2(1H)-pyrazinone] | – | – | > 10000 | > 10000 | 3.76 | 0.163
Cc1cc(O)cc(C)c1CC(N)C(=O)N1Cc2ccccc2CC1C(=O)NCCc1[nH]c(=O)c(CCNC(=O)C2Cc3ccccc3CN2C(=O)C(N)Cc2c(C)cc(O)cc2C)nc1C (stereo not drawn) [compound 60, 3,6-bis[Dmt-Tic-NH(CH2)2]-5-methyl-2(1H)-pyrazinone] | – | – | > 10000 | > 10000 | 2.83 | 0.095
Cc1cc(O)cc(C)c1CC(N)C(=O)N1Cc2ccccc2CC1C(=O)NCCCc1[nH]c(=O)c(CCCNC(=O)C2Cc3ccccc3CN2C(=O)C(N)Cc2c(C)cc(O)cc2C)nc1C (stereo not drawn) [compound 61, 3,6-bis[Dmt-Tic-NH(CH2)3]-5-methyl-2(1H)-pyrazinone] | – | – | 7020 | > 10000 | 3.08 | 0.155
Cc1cc(O)cc(C)c1CC(N)C(=O)N1Cc2ccccc2CC1C(=O)NCCCCc1[nH]c(=O)c(CCCCNC(=O)C2Cc3ccccc3CN2C(=O)C(N)Cc2c(C)cc(O)cc2C)nc1C (stereo not drawn) [compound 62, 3,6-bis[Dmt-Tic-NH(CH2)4]-5-methyl-2(1H)-pyrazinone] | – | – | > 10000 | > 10000 | 1.74 | 0.323
Cc1cc(O)cc(C)c1CC(N)C(=O)N1Cc2ccccc2CC1C(=O)NCCCCc1[nH]c(=O)c(CCCNC(=O)C2Cc3ccccc3CN2C(=O)C(N)Cc2c(C)cc(O)cc2C)nc1C (stereo not drawn) [compound 63, 3-[Dmt-Tic-NH(CH2)3]-6-[Dmt-Tic-NH(CH2)4]-5-methyl-2(1H)-pyrazinone] | – | – | > 10000 | > 10000 | 1.56 | 0.16
Cc1cc(O)cc(C)c1CC(N)C(=O)N1Cc2ccccc2CC1C(=O)NCCCCc1nc(C)c(CCCNC(=O)C2Cc3ccccc3CN2C(=O)C(N)Cc2c(C)cc(O)cc2C)[nH]c1=O (stereo not drawn) [compound 64, 3-[Dmt-Tic-NH(CH2)4]-6-[Dmt-Tic-NH(CH2)3]-5-methyl-2(1H)-pyrazinone] | – | – | > 10000 | > 10000 | 2.28 | 0.092
Cc1cc(O)cc(C)c1CC(N)C(=O)N1Cc2ccccc2CC1C(=O)NCCCCc1[nH]c(=O)c(CCNC(=O)C2Cc3ccccc3CN2C(=O)C(N)Cc2c(C)cc(O)cc2C)nc1C (stereo not drawn) [compound 65, 3-[Dmt-Tic-NH(CH2)2]-6-[Dmt-Tic-NH(CH2)4]-5-methyl-2(1H)-pyrazinone] | – | – | > 10000 | > 10000 | 1.37 | 0.107
Cc1cc(O)cc(C)c1C[C@H](N)C(=O)N1Cc2ccccc2C[C@H]1C(=O)NCCCCNC(=O)[C@@H]1Cc2ccccc2CN1C(=O)[C@@H](N)Cc1c(C)cc(O)cc1C [compound 66, bis[Dmt-Tic-NH]butane] | – | – | > 10000 | > 10000 | 5.72 | 0.124
Cc1cc(O)cc(C)c1C[C@H](N)C(=O)N1Cc2ccccc2C[C@H]1C(=O)NCCCCCCCCCCNC(=O)[C@@H]1Cc2ccccc2CN1C(=O)[C@@H](N)Cc1c(C)cc(O)cc1C [compound 68, bis[Dmt-Tic-NH]decane] | – | – | 5420 | > 10000 | 4.86 | 1.53
Cc1cc(O)cc(C)c1CC(C(=O)N1Cc2ccccc2CC1C(=O)NCCCCCCNC(=O)C1Cc2ccccc2CN1C(=O)C(Cc1c(C)cc(O)cc1C)N(C)C)N(C)C (stereo not drawn) [compound 69, bis[N,N-dimethyl-Dmt-Tic-NH]hexane] | – | – | > 10000 | > 10000 | 2.21 | 0.06
Cc1cc(O)cc(C)c1CC(C(=O)N1Cc2ccccc2CC1C(=O)NCCCc1[nH]c(=O)c(CCCNC(=O)C2Cc3ccccc3CN2C(=O)C(Cc2c(C)cc(O)cc2C)N(C)C)nc1C)N(C)C (stereo not drawn) [compound 70, 3,6-bis[N,N-dimethyl-Dmt-Tic-NH-propyl]-5-methyl-2(1H)-pyrazinone] | – | – | > 10000 | > 10000 | 1.68 | 0.287
H-Dit-Pro-Phe-Phe-NH2 [compound 38] | – | – | 299 | > 10000 | 2.29 | 105
H-Dmt-Pro-Mmp-Phe-NH2 [compound 40] | – | – | 0.16 | > 10000 | 0.18 | 4.61
H-Dmt-Pro-Tmp-Phe-NH2 [compound 44] | – | – | 0.21 | > 10000 | 0.18 | 1.83
H-Mmt-Pro-Phe-Phe-NH2 [compound 34] | – | – | 0.924 | 28.7 | 0.132 | 529
H-Tmt-Pro-Phe-Phe-NH2 [compound 39] | – | – | 2.31 | 46.4 | 0.111 | 594
